The values that follow come from US9527837B2, “Inhibitors of EZH2” (Eli Lilly and Company, priority 2014, dated 2016).

The IC50 is the concentration that gives 50% inhibition. The low end stands for inhibition by little substance, the high end for a need for much substance.

Assay [1] has as its system tri-methylated H3K27 in MDA MB-231 (EZH2 WT) cells. Briefly: H3K27Me3 cell-based ELISA, MDA MB-231. Particulars: Homo sapiens, 48 hours. The method, then:
(§1) The purpose of this assay is to evaluate the ability of a compound to inhibit the functional activity of EZH2 in cells, via measurement of levels of cell tri-methylated H3K27. Plate MDA MB-231 (EZH2 WT) or Karpas-422 (EZH2 Y641N) cells at 3500/100 μL/well (for MDA MB-231) or 5,000 cells/100 μL/well (for Karpas-422) in black 96-well BD BioCoat Cellware, Poly-Lysine plates (BD Biosciences, Cat#354640). Prepare compound plates in a Nunc™ 96-Well Polypropylene MicroWell Plate (Thermo Scientific Cat# #249944) with the addition of 40 μL/well of 10 mM compound (representing starting final concentration of 20 μM) or 40 μL DMSO, then prepare serial dilutions through the transfer of 20 μL from one well to the next. Add 5 μL of test compound to 245 μL/well of growth media in a separate Nunc™ 96-Well Polypropylene MicroWell Plate, and stamp 11 μL of the compound/media mix onto the cell plates. Place cell plates in a 37° C. incubator for 48 hours. Remove plates from the incubator, place the plates at room temperature for 15-20 minutes, and spin down the plates at 1000 rpm for 5 minutes. Fix cells with 30 μL 16% paraformaldehyde for 15 minutes at room temperature. Remove the paraformaldehyde and permeabilize cells with 100 μL/well PBS minus calcium or magnesium (−/−) containing 0.1% TRITON® X-100 for 20 minutes at room temperature. […]
A general note: ELISA stands for enzyme-linked immunosorbent assay.

Assay [2] relates to tri-methylated H3K27 in Karpas-422 (EZH2 Y641N) cells. Briefly: H3K27Me3 cell-based ELISA, Karpas-422. Particulars: Homo sapiens, 48 hours. As to the method:
as §1

Another assay has as its system Karpas-422 cells. Put plainly: Karpas-422 proliferation assay. It counts as cell-based. The conditions noted are these: Homo sapiens, KARPAS-422, 168 h; 7 days, Cell Titer GLO. As to the method: Plate Karpas-422 cells at a density of 5000 cells/100 μL/well in 96 well, black 96-well BD BioCoat Cellware, Poly-Lysine plates (BD Biosciences, Cat#354640). 40 μL of 10 mM test compound (representing starting final concentration of 20 μM) or add 100% DMSO to a Nunc 96-Well Polypropylene MicroWell Plate (Thermo Scientific Cat# #249944). Perform serial dilutions through the transfer of 20 μL from one well to the next. Add 5 μL of compound to a 245 μL/well of growth media in a separate Nunc 96-Well Polypropylene MicroWell Plate, and stamp 11 μL of the compound/media mix onto the cell plates. Incubate cell plates at 37° C. for 7 days. Add 100 μL/well of Cell Titer GLO® reagent (Promega, Cat# G7671) to the cell plates. Shake 2 minutes and measure luminescence using a plate reader.
(ATP-based viability assays read luminescence as a measure of living cells.)

The subject of assay [3] is tumor tri-methylated H3K27 (Karpas-422 xenograft). Put plainly: ELISA-based measurement of tumor-derived tri-methylated H3K27, Karpas-422 xenograft. It counts as in vivo. The conditions noted are these: mice, 50 mpk BID oral gavage, day 7, p<0.0001. The method, then:
(§2) The purpose of this assay is to evaluate the ability of a test compound to inhibit tumor EZH2 function and EZH2-mediated tumor growth in vivo.
To acid-extract histones from tumors, place tumor sections of approximately 0.5 cm by 0.25 cm or 20-30 mg in weight in Lysing Matrix D 500×2 mL Add RNASE/DNASE-free tubes with beads for homogenization (MP Biomedicals, Cat#6913-500). Add 650 μL of Acid Lysis Buffer (0.4 N HCl containing Protease Inhibitor Cocktail Tablets (Roche; Cat#11836153001)). Homogenize tumor samples 2-3 times at speed 6 m/second for 20 seconds in a FastPrep FP120 homogenizer. Set samples on ice for 1 hour to separate. Transfer supernatants to an eppendorf tube and place on a tube rotator to lyse overnight at 4° C. Spin samples down at 8000 rpm for 10 minutes at 4° C. Transfer supernatants to a new tube and measure for protein concentration.
Add 150 μL/well of MSD Blocking Solution A (Meso Scale Discovery (MSD); final concentration of 3%) to a MULTI-SPOT® Tri-Methyl-Histone H3(K27) Singleplex plate (MSD; Cat#: N45CA-1). Shake at room temperature for 1 hour. Wash the plate with 1×MSD Tris Wash Buffer™ (MSD), (3×). Dispense 0.25 μg of tumor lysate in 25 μL Acid Lysis Buffer per well in triplicate. Shake overnight at 4° C. […] Add 150 μL/well 1×MSD® Read Buffer and measure chemoelectroluminescence using a MSD SECTOR® Imager 6000 instrument.

For assay [4], the system named is tumor TNFRSF21 gene expression (Karpas-422 xenograft). Briefly: qPCR-based measurement of tumor-derived TNFRSF21 mRNA expression, Karpas-422 xenograft. Particulars: 50 mpk BID oral gavage, day 7, normalized to GAPDH, p<0.0001. The format is in vivo, mice. As to the method:
as §2
To isolate RNA from tumor tissue, place tumor sections of approximately 0.5 cm by 0.25 cm or 20-30 mg in weight in Lysing Matrix D 500×2 mL Add RNASE/DNASE-free tubes with beads for homogenization (MP Biomedicals, REF: 6913-500). Add 650 μL of RLT buffer from RNeasy® Kit (Qiagen; Cat#74104). Homogenize samples 2 to 3 times at speed 6 for 20 seconds in the FastPrep FP120 homogenizer. Set samples on ice to cool for 10 minutes. Centrifuge at 13 000 rpm for 10 minutes at 4° C. Place supernatants into a QIA tube and isolate RNA using the RNeasy® Kit (Qiagen; Cat#74104).
Prepare cDNA from 3 μg of tumor RNA using the High Capacity cDNA Reverse Transcription Kit (Applied Biosystems; Cat#4368813) and incubate samples in a PCR Thermocycler using the following cycle conditions: 10 minutes at 25° C.; 2 hours at 37° C., hold at 4° C. Amplify cDNA product using Thermo Scientific ABsolute Blue QPCR ROX Mix (Applied Biosystems; Cat# AB-4139) and Taqman probes for TNFRSF21 (Applied Biosystems; Cat# Hs01560899_m1) and housekeeping gene GAPDH (Applied Biosystems; Cat# Hs02758991-g1) in the Applied Biosystems ViiA 7™ Real-Time PCR cycler. Calculate TNFRSF21 cycle threshold values and normalize to its respective sample's GAPDH levels. […]

For the molecule `COC1CN([C@H]2CC[C@H]([C@@H](C)c3scc(C(=O)NCc4c(C)cc(C)[nH]c4=O)c3C)CC2)C1` [Example 1, N-[(4,6-Dimethyl-2-oxo-1,2-dihydropyridin-3-yl)methyl]-5-{(1R)-1-[trans-4-(3-methoxyazetidin-1-yl)cyclohexyl]ethyl}-4-methylthiophene-3-carboxamide], the values for the half-maximal inhibitory concentration (IC50) (in assay [1]; in assay [2]; in the assay with Karpas-422 cells) were 1.88 ± 0.66 nM, 3.79 ± 1.02 nM and 49.7 ± 33.9 nM, respectively. Moreover, the “inhibition of tumor methylation” value in assay [3] is given as 53%. Further, the “increase in tumor TNFRSF21 gene expression” value in assay [4] is 25 fold.
As to `COC1CN([C@H]2CC[C@H]([C@H](C)c3scc(C(=O)NCc4c(C)cc(C)[nH]c4=O)c3C)CC2)C1` [Example 2, N-[(4,6-Dimethyl-2-oxo-1,2-dihydropyridin-3-yl)methyl]-5-{(1S)-1-[trans-4-(3-methoxyazetin-1-yl)cyclohexyl]ethyl}-4-methylthiophene-3-carboxamide], the half-maximal inhibitory concentration (IC50) in assay [1] came to 9.02 ± 2.69 nM; in assay [2], 144 ± 232 nM; with Karpas-422 cells, 526 nM.
